# Measurements taken from ChEMBL document CHEMBL5385844, “Discovery of novel imidazole chemotypes as isoform-selective JNK3 inhibitors for the treatment of Alzheimer's disease” (Eur J Med Chem, 2023).
# Activity calls are given as the source filed them. The calls are words filed in the database; no cut-off is given here.
# What was measured:
# [1] = biological target: Mitogen-activated protein kinase 10 (Rattus norvegicus) (UniProt P49187); test: Inhibition of JNK3 mediated anisomycin-induced APP phosphorylation in rat cortical neurons at 10 to 20 uM incubated for 24 hrs by Western blot analysis; assay type: cell-based; conditions: Cortical neuron, dose 10-20 µM
# Mus musculus [2] = test: Anti-alzheimer activity against APP/PS1 dE9 double transgenic mouse model assessed as time spent in platform quadrant at 30 mg/kg, po administered 3 times/week for 1 month and measured after 40 to 45 days of treatment by Morris water maze test (reference value: 11.06 +/- 1.53 %); assay type: functional; conditions: time 27 day
# [3] = Permeability of the compound by PAMPA-BBB assay; assay type: ADME; conditions: read-out: permeability
# [4] = AUC in Sprague-Dawley rat at 3 mg/kg, po measured upto 24 hrs by UPLC analysis; assay type: ADME, organism-based; design: time < 24 hrs, dose 3 mg/kg, route po; conditions: in vivo
# [5] = Plasma concentration in Sprague-Dawley rat at 30 mg/kg, po measured at Tmax; assay type: ADME, organism-based
# [6] = AUC in Sprague-Dawley rat at 1 mg/kg, iv measured upto 24 hrs by UPLC analysis; assay type: ADME, organism-based; design: dose 1 mg/kg, time < 24 hrs, route iv; conditions: in vivo
# Mus musculus [7] = test: Anti-alzheimer activity against homozygous 3 x Tg mouse model assessed as spontaneous alteration at 60 mg/kg, po administered daily for 2 month and measured after 57 days of treatment by Y-maze test (reference value: 46.81 +/- 2.76%); assay type: functional; conditions: time 2 months, 1460 h
# Mus musculus [8] = test: Anti-alzheimer activity against homozygous 3 x Tg mouse model assessed as escape latency time at 60 mg/kg, po administered daily for 2 months and measured after 60 days of treatment by Passive avoidance test (reference value: 43.44 +/- 7.35 sec); assay type: functional; conditions: 1460 h
# [9] = biological target: T1, Dual specificity mitogen-activated protein kinase kinase 6 (Homo sapiens, UniProt P52564); test: Inhibition of MKK6 (unknown origin) assessed as incorporation of 33P-ATP
# T1 sequence (P52564 whole entry): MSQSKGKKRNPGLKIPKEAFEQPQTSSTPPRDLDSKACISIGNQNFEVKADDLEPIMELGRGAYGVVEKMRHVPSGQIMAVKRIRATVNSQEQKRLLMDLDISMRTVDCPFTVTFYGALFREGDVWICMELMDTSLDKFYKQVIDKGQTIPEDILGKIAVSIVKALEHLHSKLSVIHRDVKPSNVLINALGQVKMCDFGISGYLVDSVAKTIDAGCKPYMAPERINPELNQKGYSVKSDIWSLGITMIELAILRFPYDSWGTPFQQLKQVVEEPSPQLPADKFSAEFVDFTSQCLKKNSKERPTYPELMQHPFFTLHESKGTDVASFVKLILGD
# [10] = biological target: Glycogen synthase kinase-3 alpha (Homo sapiens, UniProt P49840); test: Inhibition of human GSK3alpha assessed as incorporation of 33P-ATP
# Mus musculus [11] = test: Anti-alzheimer activity against homozygous 3 x Tg mouse model assessed as escape latency time at 30 mg/kg, po administered daily for 2 months and measured after 60 days of treatment by Passive avoidance test (reference value: 43.44 +/- 7.35 sec); assay type: functional; conditions: 1460 h
# Mus musculus [12] = test: Anti-alzheimer activity against APP/PS1 dE9 double transgenic mouse model assessed as spontaneous alteration at 30 mg/kg, po administered 3 times/week for 1 month and measured after 27 days of treatment by Y-maze test (reference value: 46.70 +/- 3.32%); assay type: functional; conditions: time 1 months, 730 h
# [13] = biological target: T2, Mitogen-activated protein kinase 9 (Homo sapiens, UniProt P45984); test: Inhibition of human JNK2 incubated for 40 mins in presence of ATP and [gamma33P-ATP] by scintillation counting method
# [14] = Cmax in Sprague-Dawley rat at 3 mg/kg, po measured upto 24 hrs by UPLC analysis; assay type: ADME, organism-based; design: dose 3 mg/kg, time < 24 hrs, route po; conditions: in vivo
# Mus musculus [15] = test: Anti-alzheimer activity against APP/PS1 dE9 double transgenic mouse model assessed as spontaneous alteration at 10 mg/kg, po administered 3 times/week for 1 month and measured after 27 days of treatment by Y-maze test (reference value: 46.70 +/- 3.32%); assay type: functional; conditions: time 1 months, 730 h
# Mus musculus [16] = test: Anti-alzheimer activity against APP/PS1 dE9 double transgenic mouse model assessed as escape latency time at 30 mg/kg, po administered 3 times/week for 1 month and measured after 27 days of treatment by Passive avoidance test (reference value: 18.5 +/- 2.3 sec); assay type: functional; conditions: time 27 day
# [17] = biological target: Mitogen-activated protein kinase 8 (Homo sapiens, UniProt P45983); test: Inhibition of human JNK1 incubated for 40 mins in presence of ATP and [gamma33P-ATP] by scintillation counting method
# Mus musculus [18] = test: Anti-alzheimer activity against homozygous 3 x Tg mouse model assessed as time spent in platform quadrant at 60 mg/kg, po administered daily for 2 months and measured after 27 days of treatment by Morris water maze test (reference value: 15.68 +/- 1.65 sec); assay type: functional; conditions: 1460 h
# [19] = biological target: Mitogen-activated protein kinase 10 (Rattus norvegicus) (UniProt P49187); test: Inhibition of JNK3 in anisomycin-induced c-Jun phosphorylation in primary rat cortex neuron assessed as decrease in c-Jun phosphorylation at 20 uM pretreated for 90 mins followed by treated with anisomycin further incubated for 40 mins by Western blot analysis; assay type: cell-based; conditions: Primary cortical neuron
# [20] = biological target: T2, Mitogen-activated protein kinase 9; test: Inhibition of human JNK2alpha1 assessed as incorporation of 33P-ATP
# [21] = Brain to Plasma ratio in Sprague-Dawley rat at 30 mg/kg, po measured at Tmax; assay type: ADME, organism-based; conditions: read-out: BPR
# [22] = biological target: T3, MAPK/MAK/MRK overlapping kinase (Homo sapiens, UniProt Q9UQ07); test: Inhibition of MOK (unknown origin) assessed as incorporation of 33P-ATP
# T3 sequence (Q9UQ07 whole entry): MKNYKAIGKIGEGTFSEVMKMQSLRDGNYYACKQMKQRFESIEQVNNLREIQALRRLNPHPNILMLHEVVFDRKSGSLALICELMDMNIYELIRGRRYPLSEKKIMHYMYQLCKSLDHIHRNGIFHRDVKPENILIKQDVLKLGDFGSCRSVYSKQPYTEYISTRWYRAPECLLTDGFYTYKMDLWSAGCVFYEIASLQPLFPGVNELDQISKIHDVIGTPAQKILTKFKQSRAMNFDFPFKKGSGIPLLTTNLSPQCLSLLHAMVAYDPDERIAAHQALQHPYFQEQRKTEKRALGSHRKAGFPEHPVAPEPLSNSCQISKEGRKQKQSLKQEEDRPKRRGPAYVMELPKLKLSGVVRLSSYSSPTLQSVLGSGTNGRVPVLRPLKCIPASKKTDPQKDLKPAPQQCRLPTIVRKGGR
# [23] = biological target: Mitogen-activated protein kinase 14 (Homo sapiens, UniProt Q16539); test: Inhibition of human SAPK2a assessed as incorporation of 33P-ATP
# [24] = Half life in Sprague-Dawley rat at 3 mg/kg, po measured upto 24 hrs by UPLC analysis; assay type: ADME, organism-based; conditions: in vivo
# Cortical neurone = test: Neuroprotective activity against Amyloid beta (1 to 42)-induced toxicity in rat cortical neuron assessed as cell viability at 20 uM measured after 24 hrs by MTT assay; assay type: functional; conditions: read-out: Activity
# [25] = Toxicity in APP/PS1 mouse assessed as abnormal symptoms at 10 mg/kg, po treated 3 times/week for 1 month; assay type: organism-based; conditions: in vivo, 730 h, time 1 months
# [26] = Apparent permeability across apical to basolateral side in human Caco-2 cells at 10 uM incubated for 1 hr by LC-MS/MS analysis; assay type: ADME, cell-based
# Chain of Mitogen-activated protein kinase 10 (Rattus norvegicus) (P49187 whole entry): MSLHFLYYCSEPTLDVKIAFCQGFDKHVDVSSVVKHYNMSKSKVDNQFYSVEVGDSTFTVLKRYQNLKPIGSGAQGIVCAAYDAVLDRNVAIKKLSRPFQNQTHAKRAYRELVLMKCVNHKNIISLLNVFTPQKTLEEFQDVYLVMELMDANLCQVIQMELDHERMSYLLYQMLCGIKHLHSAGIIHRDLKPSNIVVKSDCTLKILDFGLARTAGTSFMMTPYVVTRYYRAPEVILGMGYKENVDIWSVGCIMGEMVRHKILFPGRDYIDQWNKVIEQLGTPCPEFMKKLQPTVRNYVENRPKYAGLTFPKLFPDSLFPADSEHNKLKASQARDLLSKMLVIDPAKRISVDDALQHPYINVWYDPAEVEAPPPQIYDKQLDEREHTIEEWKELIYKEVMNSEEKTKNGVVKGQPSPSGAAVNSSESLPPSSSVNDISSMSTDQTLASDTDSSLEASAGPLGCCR
# T2 sequence (P45984 whole entry): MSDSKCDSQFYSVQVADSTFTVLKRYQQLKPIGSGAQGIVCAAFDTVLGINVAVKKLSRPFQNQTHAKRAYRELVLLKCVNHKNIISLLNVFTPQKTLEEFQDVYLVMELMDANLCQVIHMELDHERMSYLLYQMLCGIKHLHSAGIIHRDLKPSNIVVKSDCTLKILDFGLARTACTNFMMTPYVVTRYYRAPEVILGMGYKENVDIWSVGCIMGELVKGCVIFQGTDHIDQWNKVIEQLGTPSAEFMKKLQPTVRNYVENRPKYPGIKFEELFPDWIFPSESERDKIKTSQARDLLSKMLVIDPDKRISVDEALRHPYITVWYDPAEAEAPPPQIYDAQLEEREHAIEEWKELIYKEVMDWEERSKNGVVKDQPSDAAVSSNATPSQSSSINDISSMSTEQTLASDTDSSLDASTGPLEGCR
# Chain of Glycogen synthase kinase-3 alpha (P49840 whole entry): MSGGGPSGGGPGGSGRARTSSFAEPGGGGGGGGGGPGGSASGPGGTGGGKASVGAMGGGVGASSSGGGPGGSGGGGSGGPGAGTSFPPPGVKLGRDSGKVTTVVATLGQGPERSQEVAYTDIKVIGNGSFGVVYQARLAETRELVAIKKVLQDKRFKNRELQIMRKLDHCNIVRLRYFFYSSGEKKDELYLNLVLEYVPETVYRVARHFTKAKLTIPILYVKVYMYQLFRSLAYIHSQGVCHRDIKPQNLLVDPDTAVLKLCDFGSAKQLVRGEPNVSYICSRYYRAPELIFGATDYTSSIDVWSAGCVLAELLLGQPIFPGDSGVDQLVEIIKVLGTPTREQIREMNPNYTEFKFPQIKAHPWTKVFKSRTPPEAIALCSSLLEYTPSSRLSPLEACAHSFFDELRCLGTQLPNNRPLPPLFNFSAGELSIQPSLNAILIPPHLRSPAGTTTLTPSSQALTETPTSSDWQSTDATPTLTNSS
# Chain of Mitogen-activated protein kinase 8 (P45983 whole entry): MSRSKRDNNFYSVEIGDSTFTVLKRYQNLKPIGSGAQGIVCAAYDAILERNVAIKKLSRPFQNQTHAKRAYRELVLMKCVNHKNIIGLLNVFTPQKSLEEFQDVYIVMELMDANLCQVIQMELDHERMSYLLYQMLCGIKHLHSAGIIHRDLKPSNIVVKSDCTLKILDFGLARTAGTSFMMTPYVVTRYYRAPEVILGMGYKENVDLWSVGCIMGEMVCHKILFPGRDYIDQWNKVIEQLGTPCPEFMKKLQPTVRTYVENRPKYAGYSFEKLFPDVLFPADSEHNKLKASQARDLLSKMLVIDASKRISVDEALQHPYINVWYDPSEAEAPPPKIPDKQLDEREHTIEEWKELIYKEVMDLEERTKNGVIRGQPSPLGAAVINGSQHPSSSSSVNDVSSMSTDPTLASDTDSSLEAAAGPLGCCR
# Chain of Mitogen-activated protein kinase 14 (Q16539 whole entry): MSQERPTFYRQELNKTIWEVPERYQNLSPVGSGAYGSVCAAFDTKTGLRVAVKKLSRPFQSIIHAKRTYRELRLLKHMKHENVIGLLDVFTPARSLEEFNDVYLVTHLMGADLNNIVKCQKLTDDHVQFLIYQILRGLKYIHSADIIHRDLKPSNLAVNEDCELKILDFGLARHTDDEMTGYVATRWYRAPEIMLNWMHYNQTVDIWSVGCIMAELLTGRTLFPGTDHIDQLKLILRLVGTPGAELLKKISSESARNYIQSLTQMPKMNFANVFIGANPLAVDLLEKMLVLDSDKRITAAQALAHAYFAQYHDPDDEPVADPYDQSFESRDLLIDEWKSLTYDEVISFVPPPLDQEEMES
compound,measurement,setting,value
N#CCc1cnc(-c2ccc3ccccc3c2)n1-c1ccnc(N[C@H]2CCCN(C(=O)C3CC3)C2)n1,inhibition,[1],Active
same,Time,Mus musculus [2],15.06 s
same,Papp,[3],28.5 ×10⁻⁶ cm/s
same,AUC at 24 h,[4],338 ng·h/mL
same,Cmax,[5],1080 ng/mL
same,AUC at 24 h,[6],718 ng·h/mL
same,Activity,Mus musculus [7],56.55%
same,Time,Mus musculus [8],59.82 s
same,IC50,[9],15100 nM
same,IC50,[10],5780 nM
same,Time,Mus musculus [11],54.09 s
same,Activity,Mus musculus [12],56.12%
same,IC50,[13],144 nM
same,Cmax,[14],378 ng/mL
same,Activity,Mus musculus [15],52.31%
same,Time,Mus musculus [16],49.5 s
same,IC50,[17],298 nM
same,Time,Mus musculus [18],15.55 s
same,Activity,[19],Active
same,IC50,[20],340 nM
same,Kp,[21],0.02
same,IC50,[22],1180 nM
same,IC50,[23],310 nM
same,half-life,[24],20.4 min
same,viability at 20 µM,Cortical neurone,72.6%
same,Activity,[25],Non-Toxic
same,"Papp A→B at 1 h, 10 µM",[26],13.7 ×10⁻⁶ cm/s
